According to patent US12447153B2, “HER2 mutation inhibitors” (Array BioPharma Inc., priority 2021, dated 2025):

Assays:
[1] = biological target: EGFR (Homo sapiens (Human), UniProt P00533); test: ErbB Enzyme Assay (HTRF KinEASE-TK), Assay 3; assay type: biochemical
[2] = biological target: BCRP (Homo sapiens (Human), UniProt Q9UNQ0); test: BCRP MDCKII efflux assay (Assay 7); assay type: in vitro ADME; settings: dog; efflux ratio Papp(B-A)/Papp(A-B), BCRP MDCKII cells; read-out: Assay 7 Pe Ratio
Procedure: Assay conditions included with and without the BCRP-specific inhibitor, KO143, at a concentration of 0.3 μM to ascertain the contribution of BCRP to the efflux value of the test compound.
Final organic concentration in the assay was 1%.

[3] = biological target: ErbB2 with Exon 20 YVMA insertion (HER2-YVMA) (Homo sapiens (Human), UniProt P04626, INS775YVMA); test: Cellular Phosphorylation Assay, Assay 4 (constitutive ErbB2 phosphorylation, NIH 3T3 cells); assay type: cell-based
[4] = biological target: MDR1 (P-gp) (Homo sapiens (Human), UniProt P08183); test: in vitro; settings: pig, LLC-PK1
[5] = biological target: ErbB2 WT (Homo sapiens (Human), UniProt P04626); test: ErbB Enzyme Assay (HTRF KinEASE-TK), Assay 2; assay type: biochemical
[6] = biological target: EGFR wild type (EGFR WT) (Homo sapiens (Human), UniProt P00533); test: Cellular Phosphorylation Assay, Assay 5 (EGF-stimulated EGFR phosphorylation, NIH 3T3 cells); assay type: cell-based
[7] = cellular ErbB2 YVMA phosphorylation
[8] = cellular EGFR WT phosphorylation, EGF-stimulated
[9] = EGF-stimulated EGFR WT phosphorylation

Sequence of ErbB2 WT (P04626 23-1255): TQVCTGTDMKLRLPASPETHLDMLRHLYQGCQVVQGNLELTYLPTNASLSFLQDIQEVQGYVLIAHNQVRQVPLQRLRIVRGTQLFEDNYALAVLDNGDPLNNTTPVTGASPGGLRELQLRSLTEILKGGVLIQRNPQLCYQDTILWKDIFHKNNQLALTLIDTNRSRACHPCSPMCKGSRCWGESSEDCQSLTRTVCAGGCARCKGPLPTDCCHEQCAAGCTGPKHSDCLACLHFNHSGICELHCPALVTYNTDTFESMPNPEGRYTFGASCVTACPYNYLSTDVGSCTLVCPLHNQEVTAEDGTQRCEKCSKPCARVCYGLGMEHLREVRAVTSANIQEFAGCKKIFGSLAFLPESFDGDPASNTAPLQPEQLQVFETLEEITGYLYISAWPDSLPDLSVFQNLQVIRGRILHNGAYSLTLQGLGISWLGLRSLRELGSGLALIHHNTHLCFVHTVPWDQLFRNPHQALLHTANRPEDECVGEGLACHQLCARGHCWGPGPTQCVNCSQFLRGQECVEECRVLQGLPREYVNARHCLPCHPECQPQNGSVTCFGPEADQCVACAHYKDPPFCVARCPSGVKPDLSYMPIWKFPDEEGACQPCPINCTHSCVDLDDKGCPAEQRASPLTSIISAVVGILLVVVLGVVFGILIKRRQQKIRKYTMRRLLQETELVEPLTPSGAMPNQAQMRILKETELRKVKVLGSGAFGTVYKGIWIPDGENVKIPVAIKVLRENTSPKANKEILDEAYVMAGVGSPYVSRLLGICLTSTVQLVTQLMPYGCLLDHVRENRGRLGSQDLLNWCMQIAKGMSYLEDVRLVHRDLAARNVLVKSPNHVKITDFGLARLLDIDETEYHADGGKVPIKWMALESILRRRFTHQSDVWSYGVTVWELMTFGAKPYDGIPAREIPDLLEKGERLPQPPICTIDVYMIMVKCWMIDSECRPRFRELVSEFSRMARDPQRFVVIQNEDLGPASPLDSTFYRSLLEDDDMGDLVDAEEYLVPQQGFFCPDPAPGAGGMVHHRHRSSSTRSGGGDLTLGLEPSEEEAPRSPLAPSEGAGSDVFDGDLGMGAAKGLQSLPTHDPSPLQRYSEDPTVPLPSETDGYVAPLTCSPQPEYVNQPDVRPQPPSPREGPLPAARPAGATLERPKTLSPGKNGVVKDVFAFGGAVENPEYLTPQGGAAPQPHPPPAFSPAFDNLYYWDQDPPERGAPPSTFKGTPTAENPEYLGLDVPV
Sequence of MDR1 (P-gp) (P08183 whole entry): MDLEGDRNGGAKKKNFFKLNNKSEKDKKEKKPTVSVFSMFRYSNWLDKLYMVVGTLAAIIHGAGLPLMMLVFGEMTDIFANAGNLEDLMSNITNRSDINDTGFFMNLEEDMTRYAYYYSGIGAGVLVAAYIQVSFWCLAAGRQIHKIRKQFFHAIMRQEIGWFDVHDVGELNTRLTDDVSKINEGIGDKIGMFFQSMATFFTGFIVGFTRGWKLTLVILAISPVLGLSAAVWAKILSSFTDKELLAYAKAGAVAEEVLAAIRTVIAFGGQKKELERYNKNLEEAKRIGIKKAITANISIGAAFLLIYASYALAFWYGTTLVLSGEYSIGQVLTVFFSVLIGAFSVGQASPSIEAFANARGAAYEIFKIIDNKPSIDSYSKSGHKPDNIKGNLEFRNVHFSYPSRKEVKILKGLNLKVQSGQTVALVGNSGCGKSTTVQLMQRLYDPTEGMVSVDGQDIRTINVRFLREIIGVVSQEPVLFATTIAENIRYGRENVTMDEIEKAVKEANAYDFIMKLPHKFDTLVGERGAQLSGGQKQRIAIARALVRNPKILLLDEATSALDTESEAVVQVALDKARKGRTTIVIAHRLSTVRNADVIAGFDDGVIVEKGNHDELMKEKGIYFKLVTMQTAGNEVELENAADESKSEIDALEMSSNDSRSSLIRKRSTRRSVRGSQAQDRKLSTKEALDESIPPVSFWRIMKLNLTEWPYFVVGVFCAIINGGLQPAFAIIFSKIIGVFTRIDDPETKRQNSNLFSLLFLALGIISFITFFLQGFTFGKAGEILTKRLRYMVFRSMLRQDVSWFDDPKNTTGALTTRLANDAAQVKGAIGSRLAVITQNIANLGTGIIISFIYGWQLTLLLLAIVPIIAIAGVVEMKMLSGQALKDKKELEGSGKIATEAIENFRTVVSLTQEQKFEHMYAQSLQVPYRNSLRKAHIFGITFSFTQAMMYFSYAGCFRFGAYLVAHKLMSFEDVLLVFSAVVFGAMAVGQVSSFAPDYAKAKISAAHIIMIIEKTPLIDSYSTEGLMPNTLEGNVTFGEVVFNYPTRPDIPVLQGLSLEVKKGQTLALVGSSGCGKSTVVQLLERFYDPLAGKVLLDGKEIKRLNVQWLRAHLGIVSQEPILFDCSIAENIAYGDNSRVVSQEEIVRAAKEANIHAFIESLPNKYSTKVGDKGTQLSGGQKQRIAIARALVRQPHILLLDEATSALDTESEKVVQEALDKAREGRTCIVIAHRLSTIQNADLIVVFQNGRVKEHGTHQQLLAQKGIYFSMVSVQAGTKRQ
Sequence of ErbB2 with Exon 20 YVMA insertion (HER2-YVMA) (P04626 other isoform, or with tags, fused parts or gaps ins YVMA behind 775): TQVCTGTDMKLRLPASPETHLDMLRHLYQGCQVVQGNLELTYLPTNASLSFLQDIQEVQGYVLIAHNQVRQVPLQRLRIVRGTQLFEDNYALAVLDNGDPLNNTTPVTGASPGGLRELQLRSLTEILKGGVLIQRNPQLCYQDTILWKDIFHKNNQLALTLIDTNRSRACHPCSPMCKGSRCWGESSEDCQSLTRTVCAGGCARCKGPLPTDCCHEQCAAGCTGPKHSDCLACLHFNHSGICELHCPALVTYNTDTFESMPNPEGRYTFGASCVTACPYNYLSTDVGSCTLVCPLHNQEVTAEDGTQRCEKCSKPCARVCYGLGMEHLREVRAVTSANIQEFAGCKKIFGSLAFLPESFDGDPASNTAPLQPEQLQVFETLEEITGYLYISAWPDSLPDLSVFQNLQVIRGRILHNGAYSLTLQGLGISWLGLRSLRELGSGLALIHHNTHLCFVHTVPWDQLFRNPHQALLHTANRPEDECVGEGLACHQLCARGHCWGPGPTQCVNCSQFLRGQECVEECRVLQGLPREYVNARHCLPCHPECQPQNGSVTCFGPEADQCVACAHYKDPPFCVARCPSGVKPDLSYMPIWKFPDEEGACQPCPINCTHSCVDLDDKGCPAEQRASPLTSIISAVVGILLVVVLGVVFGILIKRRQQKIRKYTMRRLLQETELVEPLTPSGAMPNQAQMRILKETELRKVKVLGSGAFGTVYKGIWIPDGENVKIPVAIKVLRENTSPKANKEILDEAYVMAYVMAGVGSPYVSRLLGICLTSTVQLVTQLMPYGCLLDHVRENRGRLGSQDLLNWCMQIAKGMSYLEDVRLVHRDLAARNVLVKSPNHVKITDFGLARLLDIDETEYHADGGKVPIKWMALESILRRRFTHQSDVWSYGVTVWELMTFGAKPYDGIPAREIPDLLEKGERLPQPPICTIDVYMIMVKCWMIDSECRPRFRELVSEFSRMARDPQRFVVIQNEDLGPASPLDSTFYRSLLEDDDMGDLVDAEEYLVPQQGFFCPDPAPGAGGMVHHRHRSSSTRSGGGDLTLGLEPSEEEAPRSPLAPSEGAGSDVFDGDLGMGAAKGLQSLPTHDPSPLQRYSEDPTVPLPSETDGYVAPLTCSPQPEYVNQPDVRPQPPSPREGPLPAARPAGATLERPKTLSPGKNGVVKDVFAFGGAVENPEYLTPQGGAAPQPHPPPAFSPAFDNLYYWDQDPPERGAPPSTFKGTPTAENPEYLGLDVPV
Sequence of BCRP (Q9UNQ0 whole entry): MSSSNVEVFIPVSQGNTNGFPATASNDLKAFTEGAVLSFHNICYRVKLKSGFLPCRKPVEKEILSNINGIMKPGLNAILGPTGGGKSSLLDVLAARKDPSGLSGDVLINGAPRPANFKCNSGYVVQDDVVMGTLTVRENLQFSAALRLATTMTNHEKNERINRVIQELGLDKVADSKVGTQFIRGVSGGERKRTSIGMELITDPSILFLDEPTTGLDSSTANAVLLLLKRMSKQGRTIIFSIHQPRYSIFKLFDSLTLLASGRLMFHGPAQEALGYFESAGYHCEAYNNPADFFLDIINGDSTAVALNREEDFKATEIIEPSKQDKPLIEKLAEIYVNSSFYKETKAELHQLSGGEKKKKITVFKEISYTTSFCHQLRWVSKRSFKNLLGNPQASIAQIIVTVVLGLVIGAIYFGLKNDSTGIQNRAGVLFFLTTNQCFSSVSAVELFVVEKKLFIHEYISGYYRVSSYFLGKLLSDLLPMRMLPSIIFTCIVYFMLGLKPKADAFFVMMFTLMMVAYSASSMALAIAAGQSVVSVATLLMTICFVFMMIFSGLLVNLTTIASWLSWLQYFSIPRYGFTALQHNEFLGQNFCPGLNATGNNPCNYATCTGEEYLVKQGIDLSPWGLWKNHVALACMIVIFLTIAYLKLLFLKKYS

Compound	IC50 ([1]; EGFR enzyme assay)	efflux ratio at 2 h, 1 µM [2]	IC50 [3, 7]	efflux ratio at 2 h, 1 µM [4]	IC50 ([5]; ErbB2 WT enzyme assay)	IC50 [6, 8]	IC50 ([1]; EGFR enzyme)	IC50 ([3]; ErbB2 YVMA phosphorylation)	IC50 ([5]; ErbB2 WT enzyme)	IC50 [6, 9]
C=CC(=O)N1[C@@H]2CC[C@H]1[C@H](c1ccc3ncnc(Nc4ccc(Oc5ccn6ncnc6c5)c(Cl)c4F)c3n1)C2 [Example 404]	104 nM	5.2	11.5 nM	1.2	7.2 nM	≥ 5000 nM				
C=CC(=O)N1CCC(Oc2ccc3ncnc(Nc4ccc(Oc5ccc6cn(C)nc6c5)c(Cl)c4F)c3n2)CC1 [Example 9, 1-(4-((4-((3-chloro-2-fluoro-4-((2-methyl-2H-indazol-6-yl)oxy)phenyl)amino)pyrido[3,2-d]pyrimidin-6-yl)oxy)piperidin-1-yl)prop-2-en-1-one]		2.4		1.7			≥ 10000 nM	66 nM	977 nM	840 nM
C=CC(=O)N1CCC(c2ccc3ncnc(Nc4ccc(Oc5ccc6c(c5)ncn6C)c(C)c4F)c3n2)CC12CC2 (centres unmarked) [Example 128, 1-(7-(4-((2-fluoro-3-methyl-4-((1-methyl-1H-benzo[d]imidazol-5-yl)oxy)phenyl)amino)pyrido[3,2-d]pyrimidin-6-yl)-4-azaspiro[2.5]octan-4-yl)prop-2-en-1-one]		2.7		0.6			≥ 10000 nM	27.7 nM	44.4 nM	2620 nM
C=CC(=O)N1CCCN(c2ccc3ncnc(Nc4ccc(Oc5ccc6c(c5)ncn6C)c(C)c4F)c3n2)CC1(C)C [Example 69, 1-(4-(4-((2-fluoro-3-methyl-4-((1-methyl-1H-benzo[d]imidazol-5-yl)oxy)phenyl)amino)pyrido[3,2-d]pyrimidin-6-yl)-2,2-dimethyl-1,4-diazepan-1-yl)prop-2-en-1-one]		2.4		3			≥ 10000 nM	19.9 nM	141 nM	≥ 5000 nM
C=CC(=O)N1CCC(Oc2ccc3ncnc(Nc4ccc(Oc5ccn6ncnc6c5)c(C)c4F)c3n2)CC1 [Example 17, 1-(4-((4-((4-([1,2,4]triazolo[1,5-a]pyridin-7-yloxy)-2-fluoro-3-methylphenyl)amino)pyrido[3,2-d]pyrimidin-6-yl)oxy)piperidin-1-yl)prop-2-en-1-one]				2.7			2110 nM	14 nM	48.3 nM	1220 nM
C=CC(=O)N1CCC(Oc2ccc3ncnc(Nc4ccc(Oc5ccn6ccnc6c5)c(C)c4)c3n2)CC1 [Example 15, 1-(4-((4-((4-(imidazo[1,2-a]pyridin-7-yloxy)-3-methylphenyl)amino)pyrido[3,2-d]pyrimidin-6-yl)oxy)piperidin-1-yl)prop-2-en-1-one]				10.2			1680 nM	12.8 nM	45.5 nM	555 nM
C=CC(=O)N1CCC(Oc2ccc3ncnc(Nc4ccc(Oc5cc6nn(C)cc6cn5)c(C)c4)c3n2)CC1 [Example 52, 1-(4-((4-((3-methyl-4-((2-methyl-2H-pyrazolo[4,3-c]pyridin-6-yl)oxy)phenyl)amino)pyrido[3,2-d]pyrimidin-6-yl)oxy)piperidin-1-yl)prop-2-en-1-one]				34.5			≥ 10000 nM	34.7 nM	395 nM	≥ 5000 nM
C=CC(=O)N1CCC(N(C)c2ccc3ncnc(Nc4ccc(Oc5ccn6ncnc6c5)c(C)c4F)c3n2)CC1 [Example 32, 1-(4-((4-((4-([1,2,4]triazolo[1,5-a]pyridin-7-yloxy)-2-fluoro-3-methylphenyl)amino)pyrido[3,2-d]pyrimidin-6-yl)(methyl)amino)piperidin-1-yl)prop-2-en-1-one]				1.9			5530 nM	131 nM	45.8 nM	≥ 5000 nM
C=CC(=O)N1C2CC1CN(c1ccc3ncnc(Nc4cc(C)c(Oc5ccc6c(c5)ncn6C)cc4F)c3n1)C2 [Example 48, 1-(3-(4-((2-fluoro-5-methyl-4-((1-methyl-1H-benzo[d]imidazol-5-yl)oxy)phenyl)amino)pyrido[3,2-d]pyrimidin-6-yl)-3,6-diazabicyclo[3.1.1]heptan-6-yl)prop-2-en-1-one]		10.2					≥ 10000 nM	16.6 nM	264 nM	≥ 5000 nM
C=CC(=O)N1CCN(c2ccc3ncnc(Nc4cc(Cl)c(Oc5ccn6ncnc6c5)cc4F)c3n2)CC1 [Example 81, 1-(4-(4-((4-([1,2,4]triazolo[1,5-a]pyridin-7-yloxy)-5-chloro-2-fluorophenyl)amino)pyrido[3,2-d]pyrimidin-6-yl)piperazin-1-yl)prop-2-en-1-one]		17.4					9430 nM	9.5 nM	33.2 nM	≥ 5000 nM
C=CC(=O)N1C2CCC1CN(c1ccc3ncnc(Nc4cc(Cl)c(Oc5ccn6ncnc6c5)cc4F)c3n1)C2 [Example 434]	1230 nM	13.6	9.8 nM		20.8 nM	3490 nM				

Next, values leading:

IC50 ([1]; EGFR enzyme assay)	efflux ratio at 2 h, 1 µM [2]	IC50 [3, 7]	efflux ratio at 2 h, 1 µM [4]	IC50 ([5]; ErbB2 WT enzyme assay)	IC50 [6, 8]	IC50 ([1]; EGFR enzyme)	IC50 ([3]; ErbB2 YVMA phosphorylation)	IC50 ([5]; ErbB2 WT enzyme)	IC50 [6, 9]	Compound
4580 nM	2.9	21.1 nM	1	170 nM	≥ 5000 nM					C=CC(=O)N1CCN(c2ccc3ncnc(Nc4cc(C)c(Oc5ccc6c(c5)ncn6C)cc4F)c3n2)C[C@@H]1C1CC1 [Example 252]
	5.2		1.8			955 nM	24.3 nM	36.7 nM	2250 nM	C=CC(=O)N1CCN(c2ccc3ncnc(Nc4ccc(Oc5cnc6c(c5)ncn6C)c(Cl)c4F)c3n2)CC1(C)C [Example 239, 1-(4-(4-((3-chloro-2-fluoro-4-((3-methyl-3H-imidazo[4,5-b]pyridin-6-yl)oxy)phenyl)amino)pyrido[3,2-d]pyrimidin-6-yl)-2,2-dimethylpiperazin-1-yl)prop-2-en-1-one]
192 nM	3.6	5.7 nM	4.8	8.1 nM	264 nM					C=CC(=O)N1C[C@@H]2CC[C@H]1CN2c1ccc2ncnc(Nc3cc(C)c(Oc4ccn5ncnc5c4)cc3F)c2n1 [Example 319]
1290 nM	4	13.4 nM	2	61.3 nM	≥ 5000 nM					C=CC(=O)N1CCCC(c2ccc3ncnc(Nc4ccc(Oc5cnc6c(c5)ncn6C)c(C)c4)c3n2)CC1 (centres unmarked) [Example 403]
362 nM	3.6	8.2 nM	1.4	13 nM	417 nM					C=CC(=O)N1CCN(c2ccc3ncnc(Nc4cc(C)c(Oc5ccn6ncnc6c5)cc4F)c3n2)CC12CC2 [Example 337]
	31.6					680 nM	5 nM	11.9 nM	1350 nM	C=CC(=O)N1CCN(c2ccc3ncnc(Nc4ccc(Oc5ccc6c(c5)ncn6C)c(C)c4)c3n2)CC1 [Example 105, 1-(4-(4-((3-methyl-4-((1-methyl-1H-benzo[d]imidazol-5-yl)oxy)phenyl)amino)pyrido[3,2-d]pyrimidin-6-yl)piperazin-1-yl)prop-2-en-1-one]
2860 nM	6.4	31 nM		66.4 nM	≥ 5000 nM					C=CC(=O)N(C)[C@H]1CCN(c2ccc3ncnc(Nc4cc(C)c(Oc5ccn6ncnc6c5)cc4F)c3n2)C1 [Example 351]
			3.9			3800 nM	16 nM	41.1 nM	≥ 5000 nM	C=CC(=O)N1C[C@@H](c2ccc3ncnc(Nc4cc(C)c(Oc5ccc6c(c5)ncn6C)cc4F)c3n2)C[C@@H]1C [Example 190, 1-((2S,4S)-4-(4-((2-fluoro-5-methyl-4-((1-methyl-1H-benzo[d]imidazol-5-yl)oxy)phenyl)amino)pyrido[3,2-d]pyrimidin-6-yl)-2-methylpyrrolidin-1-yl)prop-2-en-1-one]
979 nM	9.5	17.5 nM		12.5 nM	488 nM					C=CC(=O)N1CC[C@H]2C[C@H](c3ccc4ncnc(Nc5ccc(Oc6ccn7ncnc7c6)c(C)c5)c4n3)C[C@H]21 [Example 383]
	6.8					≥ 10000 nM	24.6 nM	1170 nM	≥ 5000 nM	C=CC(=O)N1C[C@H]2CC[C@@H]1CN2c1ccc2ncnc(Nc3ccc(Oc4cnc5c(c4)ncn5C)c(C)c3F)c2n1 [Example 236, 1-((1R,4R)-5-(4-((2-fluoro-3-methyl-4-((3-methyl-3H-imidazo[4,5-b]pyridin-6-yl)oxy)phenyl)amino)pyrido[3,2-d]pyrimidin-6-yl)-2,5-diazabicyclo[2.2.2]octan-2-yl)prop-2-en-1-one]
	6.4					2160 nM	9.6 nM	55.9 nM	4760 nM	C=CC(=O)N1CC[C@@H](c2ccc3ncnc(Nc4ccc(Oc5ccc6c(c5)ncn6C)c(C)c4F)c3n2)C1 (racemic) [Example 131, rac-(R)-1-(3-(4-((2-fluoro-3-methyl-4-((1-methyl-1H-benzo[d]imidazol-5-yl)oxy)phenyl)amino)pyrido[3,2-d]pyrimidin-6-yl)pyrrolidin-1-yl)prop-2-en-1-one]
